The values below come from patent US9532990B2 (Zhejiang DTRM Biopharma Co. Ltd., priority 2014, dated 2017).

A value given as a limit tells only on which side of the number the result lay.

The target in the first assay is BTK wild type (Homo sapiens (Human), UniProt Q06187). Description: Inhibition assay of BTK kinase activity (HTRF).
BTK wild type, sequence (Q06187 whole entry): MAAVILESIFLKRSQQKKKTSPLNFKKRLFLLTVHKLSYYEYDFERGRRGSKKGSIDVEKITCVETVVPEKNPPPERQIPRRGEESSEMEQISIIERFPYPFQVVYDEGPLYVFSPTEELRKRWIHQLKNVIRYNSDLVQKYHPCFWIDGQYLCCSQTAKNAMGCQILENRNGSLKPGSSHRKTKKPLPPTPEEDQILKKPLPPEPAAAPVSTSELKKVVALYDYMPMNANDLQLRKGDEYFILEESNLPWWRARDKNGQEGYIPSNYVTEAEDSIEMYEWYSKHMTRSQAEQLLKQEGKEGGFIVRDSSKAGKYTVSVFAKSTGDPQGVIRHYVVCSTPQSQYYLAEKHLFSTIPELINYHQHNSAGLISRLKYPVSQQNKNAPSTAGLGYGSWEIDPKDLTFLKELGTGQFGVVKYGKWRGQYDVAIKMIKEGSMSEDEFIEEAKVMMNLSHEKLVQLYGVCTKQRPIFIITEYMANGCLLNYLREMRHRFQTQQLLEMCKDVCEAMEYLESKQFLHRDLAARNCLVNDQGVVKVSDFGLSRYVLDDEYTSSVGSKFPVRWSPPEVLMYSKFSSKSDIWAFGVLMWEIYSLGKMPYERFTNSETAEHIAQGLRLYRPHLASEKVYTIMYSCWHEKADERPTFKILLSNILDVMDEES
Details: not given
The class given is biochemical. The procedure:
Inhibition Assay of BTK Kinase Activity:
The enzyme reaction mixture of BTK wild type standard HTRF assay contained 1 nM BTK wild type, 1 μM biotin-TK1 peptide, and 30 μM ATP in a buffer. The enzyme reaction were carried out at room temperature for 60 minutes. […] The plates were incubated at room temperature for 60 minutes and then read in the Envision plate reader.
`Nc1ncnc2c1c(-c1ccc(Oc3c(F)c(F)cc(F)c3F)cc1F)nn2[C@@H]1CCN(C(=O)CCl)C1` [Compound 75, 1-((R)-3-(4-amino-3-(2-fluoro-4-(2,3,5,6-tetrafluorophenoxy)phenyl)-1H-pyrazolo[3,4-d]pyrimidin-1-yl)pyrrolidin-1-yl)-2-chloroethanone] gave an IC50 below 10 nM.

The assay is the same for the next values; noted with them: all compounds with IC50 of less 10 nM; read-out: IC50 (BTK).
For the compound `Nc1ncnc2c1c(-c1ccc(Oc3c(F)c(F)cc(F)c3F)cc1F)nn2C1CCCN(C(=O)CCl)C1` (stereo not drawn) [Compound 61, 1-(3-(4-amino-3-(2-fluoro-4-(2,3,5,6-tetrafluorophenoxy)phenyl)-1H-pyrazolo[3,4-d]pyrimidin-1-yl)piperidin-1-yl)-2-chloroethanone], the IC50 is below 10 nM.

For `C=CC(=O)N1CC[C@@H](n2nc(-c3ccc(C(=O)c4ccccc4F)cc3F)c3c(N)ncnc32)C1` [Compound 72, 1-((R)-3-(4-amino-3-(2-fluoro-4-(2-fluorobenzoyl)phenyl)-1H-pyrazolo[3,4-d]pyrimidin-1-yl)pyrrolidin-1-yl)prop-2-en-1-one], the half-maximal inhibitory concentration (IC50) is below 10 nM.

Take `CCOC(=O)/C=C/CNC(=O)N1CCCC(n2nc(-c3ccc(Oc4c(F)c(F)cc(F)c4F)cc3F)c3c(N)ncnc32)C1` (stereo not drawn) [Compound 74, (E)-ethyl 4-(3-(4-amino-3-(2-fluoro-4-(2,3,5,6-tetrafluorophenoxy)phenyl)-1H-pyrazolo[3,4-d]pyrimidin-1-yl)piperidine-1-carboxamido)but-2-enoate]: the 50% inhibitory concentration (IC50) was below 10 nM.

The same assay, now with this note: read-out: BTK IC50.
In the case of `CNC(=O)CN1CCCC(n2nc(-c3ccc(Oc4c(F)c(F)cc(F)c4F)cc3F)c3c(N)ncnc32)C1` (stereo not drawn) [Compound 56, 2-(3-(4-amino-3-(2-fluoro-4-(2,3,5,6-tetrafluorophenoxy)phenyl)-1H-pyrazolo[3,4-d]pyrimidin-1-yl)piperidin-1-yl)-N-methylacetamide], the half-maximal inhibitory concentration (IC50) is 365 nM.

For `CNC(=O)C(=O)N1CCCC(n2nc(-c3ccc(Oc4c(F)c(F)cc(F)c4F)cc3F)c3c(N)ncnc32)C1` (stereo not drawn) [Compound 57, 2-(3-(4-amino-3-(2-fluoro-4-(2,3,5,6-tetrafluorophenoxy)phenyl)-1H-pyrazolo[3,4-d]pyrimidin-1-yl)piperidin-1-yl)-N-methyl-2-oxoacetamide], the concentration for half-maximal inhibition (IC50) turned out to be 692 nM.

Turning to `Nc1ncnc2c1c(-c1ccc(Oc3c(F)c(F)cc(F)c3F)cc1F)nn2[C@@H]1CCN(C(=O)CCCl)C1` [Compound 58, 1-((R)-3-(4-amino-3-(2-fluoro-4-(2,3,5,6-tetrafluorophenoxy)phenyl)-1H-pyrazolo[3,4-d]pyrimidin-1-yl)pyrrolidin-1-yl)-3-chloropropan-1-one], the IC50 amounted to 148 nM.

Turning to `Nc1ncnc2c1c(-c1ccc(Oc3c(F)c(F)cc(F)c3F)cc1F)nn2C1CCCN(C(=O)c2c[nH]cn2)C1` (stereo not drawn) [Compound 59, (3-(4-amino-3-(2-fluoro-4-(2,3,5,6-tetrafluorophenoxy)phenyl)-1H-pyrazolo[3,4-d]pyrimidin-1-yl)piperidin-1-yl)(1H-imidazol-4-yl)methanone], the IC50 was 174 nM.

On to `Nc1ncnc2c1c(-c1ccc(Oc3c(F)c(F)cc(F)c3F)cc1F)nn2C1CCCN(C(=O)c2cccnc2)C1` (stereo not drawn) [Compound 60, (3-(4-amino-3-(2-fluoro-4-(2,3,5,6-tetrafluorophenoxy)phenyl)-1H-pyrazolo[3,4-d]pyrimidin-1-yl)piperidin-1-yl)(pyridin-3-yl)methanone], for which the half-maximal inhibitory concentration (IC50) stood at 576 nM.

`Nc1ncnc2c1c(-c1ccc(Oc3c(F)c(F)cc(F)c3F)cc1F)nn2C1CCCN(C(=O)CCl)C1` (stereo not drawn) [Compound 61, 1-(3-(4-amino-3-(2-fluoro-4-(2,3,5,6-tetrafluorophenoxy)phenyl)-1H-pyrazolo[3,4-d]pyrimidin-1-yl)piperidin-1-yl)-2-chloroethanone]: the IC50 was 0.8 nM.

As to `CN(C)CC(=O)N1CCCC(n2nc(-c3ccc(Oc4c(F)c(F)cc(F)c4F)cc3F)c3c(N)ncnc32)C1` (stereo not drawn) [Compound 62, 1-(3-(4-amino-3-(2-fluoro-4-(2,3,5,6-tetrafluorophenoxy)phenyl)-1H-pyrazolo[3,4-d]pyrimidin-1-yl)piperidin-1-yl)-2-(dimethylamino)ethanone], the IC50 was 207 nM.

With `Nc1ncnc2c1c(-c1ccc(Oc3c(F)c(F)cc(F)c3F)cc1F)nn2C1CCCN(C(=O)C2CNC(=O)S2)C1` (stereo not drawn) [Compound 63, 5-(3-(4-amino-3-(2-fluoro-4-(2,3,5,6-tetrafluorophenoxy)phenyl)-1H-pyrazolo[3,4-d]pyrimidin-1-yl)piperidine-1-carbonyl)thiazolidin-2-one], the IC50 stood at 454 nM.

On to `C=C(C(=O)N1CCCC(n2nc(-c3ccc(Oc4c(F)c(F)cc(F)c4F)cc3F)c3c(N)ncnc32)C1)C(F)(F)F` (stereo not drawn) [Compound 64, 1-(3-(4-amino-3-(2-fluoro-4-(2,3,5,6-tetrafluorophenoxy)phenyl)-1H-pyrazolo[3,4-d]pyrimidin-1-yl)piperidin-1-yl)-2-(trifluoromethyl)prop-2-en-1-one], for which the IC50 was 6 nM.

`Nc1ncnc2c1c(-c1ccc(Oc3c(F)c(F)cc(F)c3F)cc1F)nn2C1CCCN(C(=O)CC(=O)C(F)(F)F)C1` (stereo not drawn) [Compound 65, 1-(3-(4-amino-3-(2-fluoro-4-(2,3,5,6-tetrafluorophenoxy)phenyl)-1H-pyrazolo[3,4-d]pyrimidin-1-yl)piperidin-1-yl)-4,4,4-trifluorobutane-1,3-dione]: the half-maximal inhibitory concentration (IC50) amounted to 119 nM.

With `O=C(CC(=O)C(F)(F)F)Nc1ncnc2c1c(-c1ccc(Oc3c(F)c(F)cc(F)c3F)cc1F)nn2C1CCCNC1` (stereo not drawn) [Compound 66, 4,4,4-trifluoro-N-(3-(2-fluoro-4-(2,3,5,6-tetrafluorophenoxy)phenyl)-1-(piperidin-3-yl)-1H-pyrazolo[3,4-d]pyrimidin-4-yl)-3-oxobutanamide], the IC50 was 729 nM.

Regarding `Nc1ncnc2c1c(-c1ccc(Oc3c(F)c(F)cc(F)c3F)cc1F)nn2C1CCCN(C(=O)CC(=O)C2CC2)C1` (stereo not drawn) [Compound 67, 1-(3-(4-amino-3-(2-fluoro-4-(2,3,5,6-tetrafluorophenoxy)phenyl)-1H-pyrazolo[3,4-d]pyrimidin-1-yl)piperidin-1-yl)-3-cyclopropylpropane-1,3-dione], the 50% inhibitory concentration (IC50) worked out at 586 nM.

For `C=C(CN1CCCC(n2nc(-c3ccc(Oc4c(F)c(F)cc(F)c4F)cc3F)c3c(N)ncnc32)C1)C(=O)OCC` (stereo not drawn) [Compound 68, ethyl 2-((3-(4-amino-3-(2-fluoro-4-(2,3,5,6-tetrafluorophenoxy)phenyl)-1H-pyrazolo[3,4-d]pyrimidin-1-yl)piperidin-1-yl)methyl)acrylate], the half-maximal inhibitory concentration (IC50) came to 279 nM.

Consider `C=C(CN1CCCC(n2nc(-c3ccc(Oc4c(F)c(F)cc(F)c4F)cc3F)c3c(N)ncnc32)C1)C(=O)NC` (stereo not drawn) [Compound 69, 2-((3-(4-amino-3-(2-fluoro-4-(2,3,5,6-tetrafluorophenoxy)phenyl)-1H-pyrazolo[3,4-d]pyrimidin-1-yl)piperidin-1-yl)methyl)-N-methylacrylamide], for which the IC50 worked out at 52 nM.

Turning to `C=C(C#N)CN1CCCC(n2nc(-c3ccc(Oc4c(F)c(F)cc(F)c4F)cc3F)c3c(N)ncnc32)C1` (stereo not drawn) [Compound 70, 2-((3-(4-amino-3-(2-fluoro-4-(2,3,5,6-tetrafluorophenoxy)phenyl)-1H-pyrazolo[3,4-d]pyrimidin-1-yl)piperidin-1-yl)methyl)acrylonitrile], the IC50 came to 17 nM.

`C=CC(=O)N1CC[C@@H](n2nc(-c3ccc(C(=O)c4ccccc4F)cc3F)c3c(N)ncnc32)C1` [Compound 72, 1-((R)-3-(4-amino-3-(2-fluoro-4-(2-fluorobenzoyl)phenyl)-1H-pyrazolo[3,4-d]pyrimidin-1-yl)pyrrolidin-1-yl)prop-2-en-1-one]: the IC50 was 1 nM.

As for `CCOC(=O)/C=C/CNC(=O)N1CCCC(n2nc(-c3ccc(Oc4c(F)c(F)cc(F)c4F)cc3F)c3c(N)ncnc32)C1` (stereo not drawn) [Compound 74, (E)-ethyl 4-(3-(4-amino-3-(2-fluoro-4-(2,3,5,6-tetrafluorophenoxy)phenyl)-1H-pyrazolo[3,4-d]pyrimidin-1-yl)piperidine-1-carboxamido)but-2-enoate], the half-maximal inhibitory concentration (IC50) came out at 3 nM.

With `Nc1ncnc2c1c(-c1ccc(Oc3c(F)c(F)cc(F)c3F)cc1F)nn2[C@@H]1CCN(C(=O)CCl)C1` [Compound 75, 1-((R)-3-(4-amino-3-(2-fluoro-4-(2,3,5,6-tetrafluorophenoxy)phenyl)-1H-pyrazolo[3,4-d]pyrimidin-1-yl)pyrrolidin-1-yl)-2-chloroethanone], the half-inhibitory concentration (IC50) amounted to 3 nM.

For `CNC(=O)/C=C/CNC(=O)N1CC[C@@H](n2nc(-c3ccc(Oc4c(F)c(F)cc(F)c4F)cc3F)c3c(N)ncnc32)C1` [Compound 76, (3R)-3-(4-amino-3-(2-fluoro-4-(2,3,5,6-tetrafluorophenoxy)phenyl)-1H-pyrazolo[3,4-d]pyrimidin-1-yl)-N-(4-(methylamino)-4-oxobut-2-enyl)pyrrolidine-1-carboxamide], the concentration for half-maximal inhibition (IC50) is 27 nM.

In the case of `Nc1ncnc2c1c(-c1ccc(Oc3c(F)c(F)cc(F)c3F)cc1F)nn2[C@@H]1CCN(C(=O)C(=O)C(F)(F)F)C1` [Compound 77, 1-((R)-3-(4-amino-3-(2-fluoro-4-(2,3,5,6-tetrafluorophenoxy)phenyl)-1H-pyrazolo[3,4-d]pyrimidin-1-yl)pyrrolidin-1-yl)-3,3,3-trifluoropropane-1,2-dione], the IC50 is 201 nM.

As for `Nc1ncnc2c1c(-c1ccc(Oc3c(F)c(F)cc(F)c3F)cc1F)nn2[C@@H]1CCN(C(=O)C(=O)C2CC2)C1` [Compound 78, 1-((R)-3-(4-amino-3-(2-fluoro-4-(2,3,5,6-tetrafluorophenoxy)phenyl)-1H-pyrazolo[3,4-d]pyrimidin-1-yl)pyrrolidin-1-yl)-2-cyclopropylethane-1,2-dione], the half-inhibitory concentration (IC50) came out at 1900 nM.

For `CC(C)C(=O)C(=O)N1CC[C@@H](n2nc(-c3ccc(Oc4c(F)c(F)cc(F)c4F)cc3F)c3c(N)ncnc32)C1` [Compound 79, 1-((R)-3-(4-amino-3-(2-fluoro-4-(2,3,5,6-tetrafluorophenoxy)phenyl)-1H-pyrazolo[3,4-d]pyrimidin-1-yl)pyrrolidin-1-yl)-3-methylbutane-1,2-dione], the concentration for half-maximal inhibition (IC50) worked out at 1660 nM.

In the case of `CC(C)(CO)C(=O)C(=O)N1CC[C@@H](n2nc(-c3ccc(Oc4c(F)c(F)cc(F)c4F)cc3F)c3c(N)ncnc32)C1` [Compound 80, 1-((R)-3-(4-amino-3-(2-fluoro-4-(2,3,5,6-tetrafluorophenoxy)phenyl)-1H-pyrazolo[3,4-d]pyrimidin-1-yl)pyrrolidin-1-yl)-4-hydroxy-3,3-dimethylbutane-1,2-dione], the half-maximal inhibitory concentration (IC50) was 1280 nM.

With `Nc1ncnc2c1c(-c1ccc(Oc3c(F)c(F)cc(F)c3F)cc1F)nn2C1CCCN(C(=O)C(=O)C2CC2)C1` (stereo not drawn) [Compound 81, 1-(3-(4-amino-3-(2-fluoro-4-(2,3,5,6-tetrafluorophenoxy)phenyl)-1H-pyrazolo[3,4-d]pyrimidin-1-yl)piperidin-1-yl)-2-cyclopropylethane-1,2-dione], the 50% inhibitory concentration (IC50) is 2240 nM.

For the compound `C=CC(=O)NCCn1nc(-c2ccc(Oc3c(F)c(F)cc(F)c3F)cc2F)c2c(N)ncnc21` [Compound 82, N-(2-(4-amino-3-(2-fluoro-4-(2,3,5,6-tetrafluorophenoxy)phenyl)-1H-pyrazolo[3,4-d]pyrimidin-1-yl)ethyl)acrylamide], the IC50 amounted to 25 nM.

For the compound `C=CC(=O)NC(C)C(C)n1nc(-c2ccc(Oc3c(F)c(F)cc(F)c3F)cc2F)c2c(N)ncnc21` (stereo not drawn) [Compound 83, N-(3-(4-amino-3-(2-fluoro-4-(2,3,5,6-tetrafluorophenoxy)phenyl)-1H-pyrazolo[3,4-d]pyrimidin-1-yl)butan-2-yl)acrylamide], the half-maximal inhibitory concentration (IC50) came to 75 nM.
